Literature values as cited in US9468597B1, “Stabilized L-ascorbic acid skin serum” (Dr. Perry Skindustries, LLC, priority 2013, dated 2016).

Assays:
[1] = without exposure to light
skin = settings: 18% or 10% concentration placed under a patch for 4 days

SMILES: O=C1O[C@H]([C@@H](O)CO)C(O)=C1O [vitamin C, L-ascorbic acid]
- half-life [1]: about 4 day
- skin irritation (skin): Neither an 18% nor a 10% concentration irritated the skin
